Experimental data published in ChEMBL document CHEMBL4507256 (2021).

How the values were obtained:
[1] = system: Tyrosine-protein kinase ABL1 (Homo sapiens), P00519 [Q252H]; details: Compound concentration 1000.0 nM
[2] = target: Activin receptor type-2A (Homo sapiens) (UniProt P27037); details: Compound concentration 1000.0 nM
[3] = target: Serine/threonine-protein kinase BRSK1 (Homo sapiens) (UniProt Q8TDC3); details: Compound concentration 1000.0 nM
[4] = target: Cyclin-dependent kinase 3 (Homo sapiens) (UniProt Q00526); details: Compound concentration 1000.0 nM
[5] = target: Serine/threonine-protein kinase Chk1 (Homo sapiens) (UniProt O14757); details: Compound concentration 1000.0 nM
[6] = target: Myotonin-protein kinase (Homo sapiens) (UniProt Q09013); details: Compound concentration 1000.0 nM
[7] = target: Fibroblast growth factor receptor 3 (Homo sapiens) (UniProt P22607); details: Compound concentration 1000.0 nM
[8] = system: Hepatocyte growth factor receptor (Homo sapiens), P08581 [Y1235D]; details: Compound concentration 1000.0 nM
[9] = target: Serine/threonine-protein kinase Nek11 (Homo sapiens) (UniProt Q8NG66); details: Compound concentration 1000.0 nM
[10] = target: Serine/threonine-protein kinase PAK 1 (Homo sapiens) (UniProt Q13153); details: Compound concentration 1000.0 nM
[11] = target: Cyclin-dependent kinase 15 (Homo sapiens) (UniProt Q96Q40); details: Compound concentration 1000.0 nM
[12] = system: Phosphatidylinositol 4,5-bisphosphate 3-kinase catalytic subunit alpha isoform (Homo sapiens), P42336 [H1047Y]; details: Compound concentration 1000.0 nM
[13] = system: Phosphatidylinositol 4,5-bisphosphate 3-kinase catalytic subunit alpha isoform (Homo sapiens), P42336 [I800L]; details: Compound concentration 1000.0 nM
[14] = target: Serine/threonine-protein kinase PLK2 (Homo sapiens) (UniProt Q9NYY3); details: Compound concentration 1000.0 nM
[15] = target: Protein kinase C epsilon type (Homo sapiens) (UniProt Q02156); details: Compound concentration 1000.0 nM
[16] = target: Protein kinase C iota type (Homo sapiens) (UniProt P41743); details: Compound concentration 1000.0 nM
[17] = target: Proto-oncogene tyrosine-protein kinase Src (Homo sapiens) (UniProt P12931); details: Compound concentration 1000.0 nM
[18] = target: Serine/threonine-protein kinase 33 (Homo sapiens) (UniProt Q9BYT3); details: Compound concentration 1000.0 nM
[19] = target: STE20/SPS1-related proline-alanine-rich protein kinase (Homo sapiens) (UniProt Q9UEW8); details: Compound concentration 1000.0 nM
[20] = target: Mitogen-activated protein kinase kinase kinase 19 (Homo sapiens) (UniProt Q56UN5); details: Compound concentration 1000.0 nM
[21] = target: T1, D(4) dopamine receptor (Homo sapiens) (UniProt P21917); details: Compound concentration 10.0 uM
T1 sequence (whole entry): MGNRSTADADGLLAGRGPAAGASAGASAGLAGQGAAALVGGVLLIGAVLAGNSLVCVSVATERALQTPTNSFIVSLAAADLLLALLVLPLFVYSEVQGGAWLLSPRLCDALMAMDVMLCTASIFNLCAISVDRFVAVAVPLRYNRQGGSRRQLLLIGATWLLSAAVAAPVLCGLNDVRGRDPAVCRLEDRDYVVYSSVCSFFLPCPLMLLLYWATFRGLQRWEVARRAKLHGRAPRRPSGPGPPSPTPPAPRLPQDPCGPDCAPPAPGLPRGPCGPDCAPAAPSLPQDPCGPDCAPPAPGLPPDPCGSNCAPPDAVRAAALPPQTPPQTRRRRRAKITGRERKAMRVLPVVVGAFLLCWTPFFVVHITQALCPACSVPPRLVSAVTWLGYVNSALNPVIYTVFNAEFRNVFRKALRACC

[22] = target: Histamine H1 receptor (Homo sapiens) (UniProt P35367); details: Compound concentration 10.0 uM
[23] = target: Alpha-1A adrenergic receptor (Homo sapiens) (UniProt P35348); details: Compound concentration 10.0 uM
[24] = target: T2, Muscarinic acetylcholine receptor M2 (Homo sapiens) (UniProt P08172); details: Compound concentration 10.0 uM
T2 sequence (whole entry): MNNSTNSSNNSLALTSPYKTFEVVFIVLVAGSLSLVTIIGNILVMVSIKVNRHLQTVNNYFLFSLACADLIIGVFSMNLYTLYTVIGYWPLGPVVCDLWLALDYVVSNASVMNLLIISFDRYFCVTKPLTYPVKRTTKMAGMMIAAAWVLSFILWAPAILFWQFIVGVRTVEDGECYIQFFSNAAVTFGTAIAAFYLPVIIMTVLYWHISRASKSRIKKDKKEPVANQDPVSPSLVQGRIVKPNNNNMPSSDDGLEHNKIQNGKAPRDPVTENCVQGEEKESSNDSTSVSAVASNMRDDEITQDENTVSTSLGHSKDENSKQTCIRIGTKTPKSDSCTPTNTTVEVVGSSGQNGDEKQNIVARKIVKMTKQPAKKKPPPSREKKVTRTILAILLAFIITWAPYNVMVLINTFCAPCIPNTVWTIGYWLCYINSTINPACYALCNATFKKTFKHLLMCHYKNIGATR

[25] = target: T3, Muscarinic acetylcholine receptor M5 (Homo sapiens) (UniProt P08912); details: Compound concentration 10.0 uM
T3 sequence (whole entry): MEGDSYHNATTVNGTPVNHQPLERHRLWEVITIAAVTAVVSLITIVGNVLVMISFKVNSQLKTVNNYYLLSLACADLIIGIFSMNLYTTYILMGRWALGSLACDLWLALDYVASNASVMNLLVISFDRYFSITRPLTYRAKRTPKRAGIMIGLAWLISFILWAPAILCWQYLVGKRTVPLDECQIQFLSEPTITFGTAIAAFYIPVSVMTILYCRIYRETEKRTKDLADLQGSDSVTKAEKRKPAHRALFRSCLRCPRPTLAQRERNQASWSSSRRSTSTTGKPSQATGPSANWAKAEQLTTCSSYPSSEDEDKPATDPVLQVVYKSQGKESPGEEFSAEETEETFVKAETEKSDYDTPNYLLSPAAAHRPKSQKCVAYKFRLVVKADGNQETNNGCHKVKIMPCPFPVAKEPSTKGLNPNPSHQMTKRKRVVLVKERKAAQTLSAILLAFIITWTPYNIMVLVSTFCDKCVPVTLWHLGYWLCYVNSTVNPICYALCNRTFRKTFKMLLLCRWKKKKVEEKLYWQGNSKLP

[26] = target: Beta-3 adrenergic receptor (Homo sapiens) (UniProt P13945); details: Compound concentration 10.0 uM
Chain of Beta-3 adrenergic receptor (Homo sapiens) (P13945 whole entry, looked up): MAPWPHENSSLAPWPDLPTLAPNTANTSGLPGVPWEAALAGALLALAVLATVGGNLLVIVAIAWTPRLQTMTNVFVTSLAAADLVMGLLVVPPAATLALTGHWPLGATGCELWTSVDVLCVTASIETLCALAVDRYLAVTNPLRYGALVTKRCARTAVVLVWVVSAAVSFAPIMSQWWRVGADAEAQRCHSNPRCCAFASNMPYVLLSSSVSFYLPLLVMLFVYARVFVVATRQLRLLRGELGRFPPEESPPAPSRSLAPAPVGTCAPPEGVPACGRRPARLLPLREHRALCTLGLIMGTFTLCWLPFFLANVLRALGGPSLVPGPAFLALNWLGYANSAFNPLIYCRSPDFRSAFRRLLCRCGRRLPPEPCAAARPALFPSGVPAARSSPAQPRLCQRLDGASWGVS

Chain of Phosphatidylinositol 4,5-bisphosphate 3-kinase catalytic subunit alpha isoform (Homo sapiens), P42336 [H1047Y] (P42336 whole entry H1047Y, canonical isoform): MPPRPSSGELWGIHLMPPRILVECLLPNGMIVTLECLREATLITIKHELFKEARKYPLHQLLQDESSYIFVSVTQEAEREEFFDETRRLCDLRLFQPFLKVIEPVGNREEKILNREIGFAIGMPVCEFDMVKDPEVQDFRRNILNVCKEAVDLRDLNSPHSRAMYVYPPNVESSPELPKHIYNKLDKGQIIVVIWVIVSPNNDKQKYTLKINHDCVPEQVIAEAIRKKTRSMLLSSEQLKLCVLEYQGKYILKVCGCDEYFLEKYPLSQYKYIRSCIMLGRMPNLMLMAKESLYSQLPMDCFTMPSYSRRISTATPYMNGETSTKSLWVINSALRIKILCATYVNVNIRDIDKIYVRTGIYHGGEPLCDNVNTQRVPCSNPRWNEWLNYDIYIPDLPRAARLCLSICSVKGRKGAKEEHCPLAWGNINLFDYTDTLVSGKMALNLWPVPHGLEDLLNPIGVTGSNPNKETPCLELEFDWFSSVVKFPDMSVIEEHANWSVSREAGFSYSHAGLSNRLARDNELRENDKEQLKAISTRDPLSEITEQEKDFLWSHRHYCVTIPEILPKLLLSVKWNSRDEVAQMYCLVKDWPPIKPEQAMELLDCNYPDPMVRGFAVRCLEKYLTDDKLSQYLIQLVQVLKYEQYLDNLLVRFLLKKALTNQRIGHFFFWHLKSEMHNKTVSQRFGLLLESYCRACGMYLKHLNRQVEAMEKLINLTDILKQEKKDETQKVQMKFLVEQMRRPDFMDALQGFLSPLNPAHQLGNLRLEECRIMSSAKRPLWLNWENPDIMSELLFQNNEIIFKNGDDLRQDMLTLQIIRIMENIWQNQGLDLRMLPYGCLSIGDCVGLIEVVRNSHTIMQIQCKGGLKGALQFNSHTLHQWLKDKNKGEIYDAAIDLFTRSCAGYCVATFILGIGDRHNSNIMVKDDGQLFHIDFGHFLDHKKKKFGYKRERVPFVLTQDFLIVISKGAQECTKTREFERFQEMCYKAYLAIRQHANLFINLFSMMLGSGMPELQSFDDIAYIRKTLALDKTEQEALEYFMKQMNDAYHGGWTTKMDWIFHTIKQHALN
Chain of Activin receptor type-2A (Homo sapiens) (P27037 whole entry): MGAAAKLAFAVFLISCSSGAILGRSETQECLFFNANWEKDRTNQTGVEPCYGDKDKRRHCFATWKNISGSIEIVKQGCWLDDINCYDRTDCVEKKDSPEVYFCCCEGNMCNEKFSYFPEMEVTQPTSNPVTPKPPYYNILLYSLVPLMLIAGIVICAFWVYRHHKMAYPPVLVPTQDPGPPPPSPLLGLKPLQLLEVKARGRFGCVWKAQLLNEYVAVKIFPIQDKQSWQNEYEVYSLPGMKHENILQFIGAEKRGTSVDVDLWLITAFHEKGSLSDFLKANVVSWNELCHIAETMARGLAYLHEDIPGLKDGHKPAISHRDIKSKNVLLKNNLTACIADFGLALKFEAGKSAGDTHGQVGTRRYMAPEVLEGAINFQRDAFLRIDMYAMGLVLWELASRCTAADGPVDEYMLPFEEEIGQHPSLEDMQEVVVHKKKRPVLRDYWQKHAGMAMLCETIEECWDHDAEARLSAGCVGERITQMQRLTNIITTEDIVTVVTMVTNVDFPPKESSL
Chain of Alpha-1A adrenergic receptor (Homo sapiens) (P35348 whole entry): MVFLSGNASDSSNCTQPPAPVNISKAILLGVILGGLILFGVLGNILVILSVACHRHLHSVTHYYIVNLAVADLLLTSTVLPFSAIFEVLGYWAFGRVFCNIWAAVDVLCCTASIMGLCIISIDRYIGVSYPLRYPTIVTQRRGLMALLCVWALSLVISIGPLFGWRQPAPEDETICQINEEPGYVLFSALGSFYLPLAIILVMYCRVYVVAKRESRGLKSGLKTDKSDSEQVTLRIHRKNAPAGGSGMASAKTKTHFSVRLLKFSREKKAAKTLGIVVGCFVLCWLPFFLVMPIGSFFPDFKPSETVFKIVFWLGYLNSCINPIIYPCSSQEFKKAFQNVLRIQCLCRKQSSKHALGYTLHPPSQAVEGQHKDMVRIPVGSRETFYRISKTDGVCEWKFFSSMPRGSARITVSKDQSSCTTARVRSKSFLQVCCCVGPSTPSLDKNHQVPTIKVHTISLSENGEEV
Chain of Histamine H1 receptor (Homo sapiens) (P35367 whole entry): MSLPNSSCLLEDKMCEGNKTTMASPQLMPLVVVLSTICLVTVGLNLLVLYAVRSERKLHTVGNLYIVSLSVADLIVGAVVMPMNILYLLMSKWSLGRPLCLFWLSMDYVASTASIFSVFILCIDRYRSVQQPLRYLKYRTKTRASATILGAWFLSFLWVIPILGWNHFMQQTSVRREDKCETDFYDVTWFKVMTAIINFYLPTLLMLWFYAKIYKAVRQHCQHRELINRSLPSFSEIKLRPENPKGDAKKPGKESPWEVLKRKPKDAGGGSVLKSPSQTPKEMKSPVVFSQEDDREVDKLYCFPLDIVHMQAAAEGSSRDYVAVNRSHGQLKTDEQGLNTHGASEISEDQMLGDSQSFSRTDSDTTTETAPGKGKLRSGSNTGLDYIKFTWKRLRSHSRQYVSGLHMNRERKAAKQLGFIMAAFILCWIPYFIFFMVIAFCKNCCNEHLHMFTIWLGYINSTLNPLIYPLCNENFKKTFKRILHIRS
Chain of Serine/threonine-protein kinase 33 (Homo sapiens) (Q9BYT3 whole entry, looked up): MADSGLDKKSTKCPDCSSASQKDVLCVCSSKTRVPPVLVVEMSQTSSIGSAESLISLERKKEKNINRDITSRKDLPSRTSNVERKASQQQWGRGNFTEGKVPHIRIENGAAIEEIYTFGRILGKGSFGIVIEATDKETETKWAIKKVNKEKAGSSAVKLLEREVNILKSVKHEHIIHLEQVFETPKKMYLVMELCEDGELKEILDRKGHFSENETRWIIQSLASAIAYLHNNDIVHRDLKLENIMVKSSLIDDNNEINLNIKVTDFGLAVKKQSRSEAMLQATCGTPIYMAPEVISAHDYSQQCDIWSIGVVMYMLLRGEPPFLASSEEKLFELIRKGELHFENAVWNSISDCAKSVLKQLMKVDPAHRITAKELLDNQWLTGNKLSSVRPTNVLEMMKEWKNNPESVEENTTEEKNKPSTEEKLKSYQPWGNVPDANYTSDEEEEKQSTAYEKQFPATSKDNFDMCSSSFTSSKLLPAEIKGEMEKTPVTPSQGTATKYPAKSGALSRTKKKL
Chain of Mitogen-activated protein kinase kinase kinase 19 (Homo sapiens) (Q56UN5 whole entry): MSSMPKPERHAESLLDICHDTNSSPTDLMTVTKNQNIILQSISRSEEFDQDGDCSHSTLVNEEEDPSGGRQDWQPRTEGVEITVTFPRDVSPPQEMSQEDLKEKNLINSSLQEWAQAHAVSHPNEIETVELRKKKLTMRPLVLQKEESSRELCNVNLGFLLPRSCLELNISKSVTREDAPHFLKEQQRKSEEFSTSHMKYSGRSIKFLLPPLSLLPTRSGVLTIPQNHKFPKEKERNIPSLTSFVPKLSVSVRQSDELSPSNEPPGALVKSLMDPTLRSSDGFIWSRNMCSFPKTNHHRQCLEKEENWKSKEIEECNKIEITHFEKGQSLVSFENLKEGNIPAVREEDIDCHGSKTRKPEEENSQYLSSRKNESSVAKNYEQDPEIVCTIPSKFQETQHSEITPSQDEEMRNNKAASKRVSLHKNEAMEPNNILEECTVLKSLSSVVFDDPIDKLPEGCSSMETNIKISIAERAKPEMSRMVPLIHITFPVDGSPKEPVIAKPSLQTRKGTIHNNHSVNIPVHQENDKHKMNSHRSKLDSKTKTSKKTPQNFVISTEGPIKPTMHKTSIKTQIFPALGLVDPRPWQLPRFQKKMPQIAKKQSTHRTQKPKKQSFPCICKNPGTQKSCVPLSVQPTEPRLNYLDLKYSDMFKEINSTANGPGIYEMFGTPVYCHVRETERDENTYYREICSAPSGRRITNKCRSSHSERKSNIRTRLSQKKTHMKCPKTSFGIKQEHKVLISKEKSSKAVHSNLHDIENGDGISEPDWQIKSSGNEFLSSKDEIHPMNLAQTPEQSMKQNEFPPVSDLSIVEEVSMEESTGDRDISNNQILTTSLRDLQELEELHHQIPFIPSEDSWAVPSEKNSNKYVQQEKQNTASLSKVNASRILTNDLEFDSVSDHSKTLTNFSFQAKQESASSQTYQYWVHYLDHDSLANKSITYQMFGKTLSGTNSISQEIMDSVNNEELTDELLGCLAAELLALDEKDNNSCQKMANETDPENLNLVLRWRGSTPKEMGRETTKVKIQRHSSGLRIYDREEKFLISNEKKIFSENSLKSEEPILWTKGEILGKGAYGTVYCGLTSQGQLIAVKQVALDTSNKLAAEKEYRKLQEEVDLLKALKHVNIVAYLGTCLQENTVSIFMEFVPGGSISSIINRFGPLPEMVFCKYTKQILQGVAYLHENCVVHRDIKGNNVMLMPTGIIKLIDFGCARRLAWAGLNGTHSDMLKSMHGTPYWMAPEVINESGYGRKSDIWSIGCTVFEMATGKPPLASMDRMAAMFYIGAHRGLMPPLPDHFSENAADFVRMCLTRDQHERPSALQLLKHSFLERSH
Chain of Phosphatidylinositol 4,5-bisphosphate 3-kinase catalytic subunit alpha isoform (Homo sapiens), P42336 [I800L] (P42336 whole entry I800L, canonical isoform): as the sequence (P42336 whole entry H1047Y, canonical isoform) above, with I800L, Y1047H counted along it

CCC(=N\O)/C(C)=C/c1ccc(F)cc1 [A-079]
inactive: residual activity [1] 69% | residual activity [2] 100% | residual activity [3] 100% | residual activity [4] 84% | residual activity [5] 83% | residual activity [6] 88% | residual activity [7] 91% | residual activity [8] 85% | residual activity [9] 100% | residual activity [10] 88% | residual activity [11] 80% | residual activity [12] 82% | residual activity [13] 100% | residual activity [14] 78% | residual activity [15] 76% | residual activity [16] 74% | residual activity [17] 91% | residual activity [18] 100% | residual activity [19] 94% | residual activity [20] 66% | inhibition [21] 19.5% | inhibition [22] 9.24% | inhibition [23] -9.69% | inhibition [24] 9.31% | inhibition [25] 6.68% | inhibition [26] -0.54%

CCC(=N\O)/C(C)=C/c1ccc(F)c(C)c1 [A-226]
inactive: residual activity [1] 100% | residual activity [2] 100% | residual activity [3] 99% | residual activity [4] 100% | residual activity [5] 83% | residual activity [6] 72% | residual activity [7] 96% | residual activity [8] 100% | residual activity [9] 100% | residual activity [10] 70% | residual activity [11] 100% | residual activity [12] 100% | residual activity [13] 100% | residual activity [14] 100% | residual activity [15] 62% | residual activity [16] 99% | residual activity [17] 98% | residual activity [18] 96% | residual activity [19] 100% | residual activity [20] 98% | inhibition [21] 18.6% | inhibition [22] 15.2% | inhibition [23] -8.35% | inhibition [24] 14.3% | inhibition [25] 2.77% | inhibition [26] 11.1%
